# Source: EPA's ToxValDB 9.5
# Several values for one entry are separate records, joined by “and”; a condition that tells them apart may be missing. Identical values can stand only once.
# Legend:
# Oryctolagus sp. [1] = conditions: for LD50: acute, dermal; for NOAEL: duration: 13 days, oral, gavage
# Mus musculus [2] = conditions: acute
# Rattus norvegicus [3] = conditions: for LD50 / NOAEL / LOAEL: oral
# Oryctolagus sp. [4] = assay: LD0; higher = less toxic; conditions: acute
# Rattus norvegicus [5] = conditions: oral, gavage
# Homo sapiens [6] = conditions: clinical, oral
# Gallus sp. = conditions: repeat dose other; oral
# Mus musculus [7] = conditions: repeat dose other; oral
# Rattus norvegicus [8] = conditions: uterotrophic; duration: 3 days; injection; subcutaneous; Active
# Mus musculus [9] = conditions: subchronic; oral; M/F; nephropathy, increased liver weight, hematological alterations, and clinical effects
# Mus musculus [10] = conditions: oral, CD1
# Megascops sp. = conditions: oral
# Canidae [11] = conditions: chronic; oral; M/F; Dog Other; histological lesions in liver, occasional convulsions
# Canidae [12] = conditions: chronic; duration: 2 years; oral; diet; F; Beagle; neurological, hepatic
# Canidae [13] = conditions: chronic; duration: 2 years; oral; diet; Dog Other; Central nervous system: Convulsions + Liver: Lesions
# Rattus norvegicus [14] = conditions: repeat dose other; oral
# Homo sapiens [15] = conditions: clinical, inhalation, M/F; for LOAEL: neurological
# Rattus norvegicus [16] = conditions: for NOAEL: M/F
# Rattus norvegicus [17] = conditions: chronic, Liver: Toxicity
# Homo sapiens [18] = conditions: clinical; oral; M/F; cholinesterase inhibition
# Rattus norvegicus [19] = assay: LD0; higher = less toxic; conditions: acute; oral; gavage; Fischer 344
# Rattus norvegicus [20] = conditions: chronic, M
# Anas platyrhynchos = conditions: oral
# Mus musculus [21] = conditions: developmental; duration: 100 days; oral; drinking water; F; CD1; developmental
# [22] = short-term, duration: 4 weeks, diet, Sprague-Dawley
# [23] = short-term, duration: 28 days, M, Sprague-Dawley, Functional Observational Battery: No urination (week1) + Body Weight Changes: decrease + Food Consumption: decrease + Urinalysis: Volume …
# [24] = short-term, duration: 28 days, gavage, Sprague-Dawley
structure (smiles),measurement,setting,value
S=c1[nH]c2ccccc2s1 [2-Mercaptobenzothiazole],LD50,Oryctolagus sp. [1],> 7940 mg/kg
same,LD50,Oryctolagus sp. [1]; New Zealand,> 7940 mg/kg
same,NOAEL,"Oryctolagus sp. [1]; developmental, New Zealand",300 mg/kg-day
same,NOAEL,"Oryctolagus sp. [1]; reproduction developmental, F, New Zealand",300 mg/kg-day and < 150 mg/kg-day
same,LD50,Mus musculus [2]; oral,2000 mg/kg
same,LC50,"Rattus norvegicus [3]; acute, inhalation",> 1.27 µg/mL
same,LD50,"Rattus norvegicus [3]; acute, Sprague-Dawley",2830 mg/kg and 3800 mg/kg
same,NOAEL,"Rattus norvegicus [3]; developmental, duration: 10 days, gavage, Sprague-Dawley",1800 mg/kg-day and 2200 mg/kg-day
same,NOAEL,"Rattus norvegicus [3]; reproduction developmental, duration: 10 days, gavage, F, Sprague-Dawley",300 mg/kg-day
same,NOAEL,"Rattus norvegicus [3]; reproduction developmental, diet, Crl:CD COBS BR",2500 ppm
same,NOAEL,"Rattus norvegicus [3]; reproduction developmental, diet, Sprague-Dawley, generation: F0",< 5000 ppm
same,NOAEL,"Rattus norvegicus [3]; reproduction developmental, diet, Sprague-Dawley, generation: F1",< 5000 ppm
same,LOAEL,Rattus norvegicus [3]; [22],1070 mg/kg-day
same,NOAEL,Rattus norvegicus [3]; [22],714 mg/kg-day
same,NOAEL,"Rattus norvegicus [3]; subchronic, duration: 13 weeks, gavage, Fischer 344",375 mg/kg-day
same,LD0,Oryctolagus sp. [4]; oral,≥ 7500 mg/kg and ≤ 8750 mg/kg
same,LD0,"Oryctolagus sp. [4]; oral, New Zealand",≥ 7500 mg/kg and ≤ 8750 mg/kg
same,NOEL,"Rattus norvegicus [5]; subchronic, duration: 13 weeks, M/F, Fischer 344, Absolute Organ Weight: Liver increase + Relative Organ Weight: Liver increase",< 188 mg/kg-day
same,NOEL,"Rattus norvegicus [5]; subchronic, M, Sprague-Dawley, Clinical Observation: Locomotor activity with ptosis decrease, Salivation + Body Weight Changes: Suppression of body weight gain(tendency…",< 40 mg/kg-day
COP(=O)(OC)C(O)C(Cl)(Cl)Cl (stereo unspecified) [Trichlorfon],LOEL,"Homo sapiens [6]; duration: 10 weeks, Inhibition of acetylcholinesterase activity",0.2 mg/kg-day
[Cl][Al]([Cl])[Cl] [Aluminum chloride],LOAEL,Gallus sp.,44.5 mg/kg-day
same,LOAEL,Mus musculus [7],19.3 mg/kg-day
same,NOAEL,Mus musculus [7],1.93 mg/kg-day
c1ccc2c(c1)-c1cccc3cccc-2c13 [Fluoranthene],LEL,Rattus norvegicus [8],10 mg/kg-day
same,LOAEL,Mus musculus [9],250 mg/kg-day
same,NOAEL,Mus musculus [9],125 mg/kg-day
same,LOAEL,"Mus musculus [10]; subchronic, duration: 90 days, gavage, M/F, hepatic",125 mg/kg-day
ClC1=C(Cl)[C@]2(Cl)[C@@H]3[C@H]4C[C@H]([C@@H]5O[C@H]45)[C@@H]3[C@@]1(Cl)C2(Cl)Cl [Endrin],LOAEL,Megascops sp.,0.1 mg/kg-day
same,NOAEL,Megascops sp.,0.01 mg/kg-day
same,LOAEL,Mus musculus [7],0.92 mg/kg-day
same,NOAEL,Mus musculus [7],0.092 mg/kg-day
same,LOAEL,Canidae [11],0.05 mg/kg-day
same,NOEL,Canidae [11],0.025 mg/kg-day
same,NOAEL,Canidae [12],0.025 mg/kg-day
same,NOEL,Canidae [13],0.025 mg/kg-day
ClCCl [Dichloromethane],LOAEL,Rattus norvegicus [14],50 mg/kg-day
same,NOAEL,Rattus norvegicus [14],5.85 mg/kg-day
same,LOAEL,"Homo sapiens [15]; duration: 1 days, chamber",1040 mg/m3
same,NOAEL,"Rattus norvegicus [16]; chronic, duration: 2 years, inhalation, Sprague-Dawley, hepatic",174 mg/m3
same,LOAEL,"Rattus norvegicus [16]; chronic, duration: 14 weeks, inhalation, unknown, hepatic",86.8 mg/m3
same,NOAEL,"Rattus norvegicus [16]; chronic, duration: 104 weeks, oral, drinking water, Fischer-344, hepatic",6 mg/kg-day
same,NOAEL,"Rattus norvegicus [17]; duration: 2 years, inhalation, intermittent",695 mg/m3
same,NOAEL,"Rattus norvegicus [17]; duration: 24 months, oral, drinking water",5.85 mg/kg-day
CNC(=O)O/N=C/C(C)(C)SC [Aldicarb],LOAEL,Homo sapiens [18],0.025 mg/kg-day
same,NOAEL,Homo sapiens [18],0.01 mg/kg-day
ON=C1CCCCC1 [Cyclohexanone oxime],LD50,"Oryctolagus sp. [1]; occlusive, New Zealand",> 5000 mg/kg
same,LD50,"Mus musculus [2]; injection, Intraperitoneal",250 mg/kg
same,LD0,Rattus norvegicus [19],> 300 mg/kg
"C1COCCO1 [1,4-Dioxane]",LOAEL,Rattus norvegicus [14],1 mg/kg-day
same,NOAEL,Rattus norvegicus [14],0.5 mg/kg-day
same,LOAEL,"Rattus norvegicus [20]; inhalation, atrophy and respiratory metaplasia of the olfactory epithelium",180 mg/m3
same,NOAEL,"Rattus norvegicus [20]; oral, liver and kidney toxicity",9.6 mg/kg-day
same,NOAEL,"Homo sapiens [15]; duration: 2 hours, ocular",72.1 mg/m3
same,LOAEL,"Rattus norvegicus [16]; chronic, duration: 104 weeks, inhalation, whole body, M, Fischer 344, respiratory",180 mg/m3
same,NOAEL,"Rattus norvegicus [16]; chronic, duration: 716 days, oral, drinking water, Sherman Wistar, hepatic",9.6 mg/kg-day
same,NOAEL,"Rattus norvegicus [16]; developmental, duration: 9 days, oral, gavage, Sprague-Dawley, developmental",516 mg/kg-day
same,NOAEL,"Rattus norvegicus [16]; subchronic, duration: 13 weeks, oral, drinking water, Fischer 344, hepatic",52 mg/kg-day
O=[As][O-].[Na+] [Sodium arsenite],LOAEL,Anas platyrhynchos,12.8 mg/kg-day
same,NOAEL,Anas platyrhynchos,5.14 mg/kg-day
CCC[C@@H]1C[C@@H](C(=O)N[C@@H]([C@H]2O[C@H](SC)[C@H](O)[C@@H](O)[C@H]2O)[C@@H](C)O)N(C)C1 [Lincomycin],NOEL,"Homo sapiens [6]; duration: 12 months, Change in gut flora",2.5 mg/kg-day
CN(C)N=O [N-Nitrosodimethylamine],LOAEL,Mus musculus [21],0.025 mg/kg-day
same,NOAEL,Rattus norvegicus [5]; [23],< 0.8 mg/kg-day
same,NOEL,Rattus norvegicus [5]; [23],< 0.8 mg/kg-day
"NC1CCCCC1N (stereo unspecified) [1,2-Cyclohexanediamine]",LD50,"Rattus norvegicus [3]; acute, gavage, Sprague-Dawley",1100 mg
same,LOAEL,Rattus norvegicus [3]; [24],250 mg/kg-day
same,NOAEL,Rattus norvegicus [3]; [24],100 mg/kg-day
same,NOAEL,"Rattus norvegicus [3]; subchronic, duration: 13 weeks, gavage, Crj:CD",125 mg/kg-day
same,LD0,"Oryctolagus sp. [4]; dermal, New Zealand",7500 mg/kg
[Cu+].[Cu+].[O-2] [Cuprous oxide],LOAEL,Gallus sp.,61.7 mg/kg-day
same,NOAEL,Gallus sp.,47 mg/kg-day
CN(C)[C@@H]1C(=O)C(C(N)=O)=C(O)[C@@]2(O)C(=O)C3=C(O)c4c(O)cccc4[C@@](C)(O)[C@H]3C[C@@H]12 [Tetracycline],NOEL,Homo sapiens [6]; Selection of resistant bacterial strains,0.033 mg/kg-day
Cc1ccccc1 [1-Methylbenzene],LOAEL,Mus musculus [7],260 mg/kg-day
same,NOAEL,Mus musculus [7],26 mg/kg-day
same,LOAEL,Homo sapiens [15]; duration: 20 minutes,56.5 mg/m3
same,NOAEL,"Mus musculus [10]; short-term, duration: 28 days, drinking water, M, immunological",22 mg/kg-day
same,LOAEL,"Rattus norvegicus [16]; acute, duration: 1 days, oral, gavage, M, Long-Evans, neurological",250 mg/kg-day
